In patent publication US9562044B2, “2-acylaminothiazole derivative or salt thereof” (ASTELLAS PHARMA INC., priority 2013, dated 2017):
Structures can show the parent of a compound that is named as a salt.

Tests used:
human c-Mpl receptor = target: T1, human c-Mpl receptor (Homo sapiens, UniProt P40238); assay: Human c-Mpl-introduced Ba/F3 cell proliferative activity; type: cell-based; details: concentration showing 30% proliferation; 100% = positive control at 1 μM
T1 construct: expressed in transfected cells
T1 sequence (P40238 26-635): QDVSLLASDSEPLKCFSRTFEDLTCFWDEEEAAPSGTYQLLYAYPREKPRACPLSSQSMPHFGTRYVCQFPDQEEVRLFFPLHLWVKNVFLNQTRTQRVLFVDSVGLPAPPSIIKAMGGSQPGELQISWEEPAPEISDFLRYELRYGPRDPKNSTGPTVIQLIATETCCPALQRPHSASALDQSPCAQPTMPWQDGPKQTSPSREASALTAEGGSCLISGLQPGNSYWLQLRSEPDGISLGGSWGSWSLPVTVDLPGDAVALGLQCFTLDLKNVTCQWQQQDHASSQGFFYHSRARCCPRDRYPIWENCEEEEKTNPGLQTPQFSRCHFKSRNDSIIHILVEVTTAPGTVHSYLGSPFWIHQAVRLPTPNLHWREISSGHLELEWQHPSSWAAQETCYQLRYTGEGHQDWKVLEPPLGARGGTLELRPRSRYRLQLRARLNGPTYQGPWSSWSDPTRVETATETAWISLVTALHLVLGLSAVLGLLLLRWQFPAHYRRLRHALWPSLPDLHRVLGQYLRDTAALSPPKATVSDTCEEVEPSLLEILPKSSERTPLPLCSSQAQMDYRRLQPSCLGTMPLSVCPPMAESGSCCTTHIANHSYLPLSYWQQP
Protocol: Evaluation of Human c-Mpl-Introduced Ba/F3 Cell Proliferative Activity
The human c-Mpl-introduced Ba/F3 cell proliferative activity was measured by the following method.
As a positive control, 1-(5-{[4-(4-chloro-2-thienyl)-5-{[(2R)-2-methylpyrrolidin-1-yl]methyl}-1,3-thiazol-2-yl]carbamoyl}-3-fluoropyridin-2-yl)piperidine-4-carboxylic acid hydrochloride, which is disclosed as Example 315 in Patent Document 1 and represented by the formula A1, was used. It is known that the compound has a good human c-Mpl-introduced Ba/F3 cell proliferative activity as disclosed in Table 1 of Patent Document 1.
a) Construction of Human c-Mpl Receptor Expression Vector
A human c-mpl receptor gene (GenBank Accession No. M90102.1) was introduced into an expression vector pEF-BOS (Nucleic Acids Res. 18, 5322, 1990).
b) Construction of Cell Stably Expressing Human c-Mpl Receptor
A human c-Mpl receptor expression vector was introduced into a Ba/F3 cell (RIKEN BRC: RCB0805). For the introduction, an electroporation method was used. pEF-BOS-c-mpl (10 μg), pSV2bsr (1 μg, Kaken Pharmaceutical Co., Ltd.) and 1×10^7 Ba/F3 cells were put into a cuvette having a gap width of 0.4 cm, and electroporated under the conditions of 1.5 kV (25 μF) by a Gene Pulser (registered trademark) (BioRad). The cells were cultured in an RPMI-1640 culture medium containing 0.5% WEHI conditioned media (BD Biosciences) and 10% fetal bovine serum for 3 days, and then cultured in an RPMI-1640 culture medium, to which 10 μg/mL blasticidin had been further added, for 30 days to acquire a drug-resistant clone.
c) Measurement of Cell Proliferative Activity
The cells obtained in b) above was cultured in an RPMI-1640 culture medium containing 0.5% WEHI conditioned media, 10% fetal bovine serum, and used. On the day before the experiment, test substances (final concentration of 100 nM to 10 μM) which had been dissolved in a culture medium for assay (RPMI-1640 culture medium containing 10% fetal bovine serum) were added to a 384-well plate (Lot No. 781185, Greiner Bio-One). The cells in the culture medium that had been replaced with a culture medium for assay were dispensed into a 384-well plate, to which the test substances had been added in advance, to 1×10^4 cells/well, and cultured at 37° C. and 5% CO2 overnight. On the experiment day, a solution of a Cell Counting Kit (Dojindo Laboratories) was added to each well of the 384-well plate and cultured at 37° C. and 5% CO2 for about 5 hours. Thereafter, the absorbance (absorption wavelength of 450 nm) of each well was measured using Safire^2™ (TECAN) and used as the index of the number of cells. Further, as a negative control, a well in which the test substance had been not added was prepared.
The absorbance of the well without the test substance was set to 0%, and the absorbance in the case where the positive control was added at a final concentration of 1 μM was set to 100%. From the absorbance in the case where the test substance had been added, a cell proliferation rate (%) was calculated. From the obtained results, the test substance concentration showing 30% proliferation was calculated as an EC30 value by a logistic regression method.

isolated rat bladder = assay: Transmural electrical field stimulation-induced contraction of isolated rat bladder; details: AUC of contractile response, value before treatment = 100%, SD female rat bladder strip, read-out: Enhancement rate of isolated bladder contraction (% of pre)
Protocol: Effects on Transmural Electrical Field Stimulation-Induced Contraction of Isolated Rat Bladder
As an effect on the nerve stimulation-dependent bladder contraction in vitro, the effect of the Example compound of the present invention in the transmural electrical field stimulation-induced contraction of isolated rat bladder was measured by the following method. That is, from the bladder isolated from a Spraque-Dawley (SD) female rat (Japan SLC, Inc.), a longitudinal bladder strip having a width of about 2 mm and a length of about 10 mm was prepared. The prepared bladder strip was suspended in an organ bath filled with 10 mL of a Krebs-Henseleit solution. The Krebs-Henseleit solution was bubbled with 95% O2 and 5% CO2, and kept at 37° C. After stabilization at an initial tension of 1 g, contraction was induced twice with 60 mM KCl. The strip was washed with the Krebs-Henseleit solution and stabilized, and then contraction was induced with transmural electrical field stimulation at 20 V (stimulation frequency of 8 Hz, pulse width of 0.3 msec, and stimulation time of 10 seconds) by an electrical stimulation device (Nihon Kohden Corporation). At an interval of 2 minutes, transmural electrical field stimulation was repeated and the voltage was adjusted to make the contractile amplitude about 50% of the contractile response by 20 V. After stabilization of the contraction by the transmural electrical field stimulation, 10 μL of the test substance (final concentrations of 3 μM, 10 μM, and 30 μM), which had been dissolved in 100% dimethylsulfoxide in advance was added. The test substance was cumulatively administered at the next concentration after the contractile response at a lower concentration had been stabilized. The responses were put into a personal computer through PowerLab (registered trademark) (AD Instruments), and analyzed with LabChart (registered trademark) (AD Instruments). The area under the response of each contractile response (area under curve, AUC) was calculated and the value before the treatment with the test substance was set to 100%. Based on this, the enhancement rate of the isolated bladder contraction (% of pre) after the treatment with the test substance was calculated.
The enhancement rates of the isolated bladder contraction due to several 10 μM Example compounds which are the compounds of the formula (I) are shown in Table 2.

Row | Compound | Test Example 2 EC30 (human c-Mpl receptor) [µM] | activity at 10 µM (isolated rat bladder) [%]
1 | CCOC[C@@H]1CCCN1Cc1sc(NC(=O)c2cnc(N3CCC(C(=O)O)CC3)cn2)nc1-c1cc(F)c(OC)c(C(F)(F)F)c1 [Example 84] | >10 | 140
2 | O=C(Nc1nc(-c2ccc(OCCCF)c(C(F)(F)F)c2)c(CN2CCC[C@H]2C(F)(F)F)s1)c1cnc(N2CCC(C(=O)O)CC2)cn1 [Example 204] | >10 | –
3 | CCCOc1ccc(-c2nc(NC(=O)c3cnc(N4CCC(C(=O)O)CC4)cn3)sc2CN2CCCC(C)(C)C2)cc1C(F)(F)F [Example 27] | >10 | –
4 | C[C@@H]1CCCN1Cc1sc(NC(=O)c2cnc(N3CCC(O)(C(=O)O)CC3)cn2)nc1-c1cc(Cl)cs1 [Example 129] | 0.77 | –
5 | CCCN(CCOC)Cc1sc(NC(=O)c2cnc(N3CCC(C(=O)O)CC3)cn2)nc1-c1cc(Cl)cs1 [Example 146] | 0.82 | –
6 | C[C@@H]1CCCN1Cc1sc(NC(=O)c2cnc(N3CCC(F)(C(=O)O)CC3)cn2)nc1-c1cc(F)cc(C(F)(F)F)c1 [Example 128] | 8.4 | –
7 | CCCOc1ccc(-c2nc(NC(=O)c3cnc(N4CCC(C(=O)O)CC4)cn3)sc2CN2CCC[C@H]2CC)cc1C(F)(F)F [Example 1, 1-{5-[(5-{[(2R)-2-ethylpyrrolidin-1-yl]methyl}-4-[4-propoxy-3-(trifluoromethyl)phenyl]-1,3-thiazol-2-yl)carbamoyl]pyrazin-2-yl}piperidine-4-carboxylic acid dihydrochloride] | >10 | 132
8 | C[C@@H]1CCCCN1Cc1sc(NC(=O)c2cnc(N3CCC(C(=O)O)CC3)cn2)nc1-c1cc(Cl)cs1 [Example 142] | 0.38 | –
9 | C[C@@H]1CCCN1Cc1sc(NC(=O)c2cnc(N3CCC(C(=O)O)CC3)cn2)nc1-c1ccc(N(C)C)c(C(F)(F)F)c1 [Example 11] | >10 | –
10 | C[C@@H]1CCCN1Cc1sc(NC(=O)c2cnc(N3CCC(C(=O)O)CC3)cn2)nc1-c1cc(F)cc(C(F)(F)F)c1 [Example 150] | >10 | –
11 | CCOc1ccc(-c2nc(NC(=O)c3cnc(N4CCC(C(=O)O)CC4)cn3)sc2CN2CCC[C@H]2C)cc1C(F)(F)F [Example 200] | >10 | –
12 | CC[C@@H]1CCCN1Cc1sc(NC(=O)c2cnc(N3CCC(C(=O)O)CC3)cn2)nc1-c1cc(Cl)cs1 [Example 196] | – | 125

The next lines start with results.

Row | Test Example 2 EC30 (human c-Mpl receptor) [µM] | Compound | activity at 10 µM (isolated rat bladder) [%]
13 | >10 | CC[C@@H]1CCCN1Cc1sc(NC(=O)c2cnc(N3CCC(F)(C(=O)O)CC3)cn2)nc1-c1ccc(OC)c(C(F)(F)F)c1 [Example 125] | –
14 | >10 | CC(C)Oc1ccc(-c2nc(NC(=O)c3cnc(N4CCC(C(=O)O)CC4)cn3)sc2CN2CCCC(C)(C)C2)cc1C(F)(F)F [Example 20] | –
15 | >10 | COc1c(Cl)cc(-c2nc(NC(=O)c3cnc(N4CCC(C(=O)O)CC4)cn3)sc2CN2CCC[C@H]2C)cc1Cl [Example 92] | 132
16 | 4.8 | Cc1cc(OC(F)(F)F)cc(-c2nc(NC(=O)c3cnc(N4CCC(F)(C(=O)O)CC4)cn3)sc2CN2CCC[C@H]2C)c1 [Example 3, 4-fluoro-1-{5-[(5-{[(2R)-2-methylpyrrolidin-1-yl]methyl}-4-[3-methyl-5-(trifluoromethoxy)phenyl]-1,3-thiazol-2-yl)carbamoyl]pyrazin-2-yl}piperidine-4-carboxylic acid dihydrochloride] | –
17 | 0.58 | COCCN(Cc1sc(NC(=O)c2cnc(N3CCC(C(=O)O)CC3)cn2)nc1-c1cc(Cl)cs1)CC(C)C [Example 152] | –
18 | >10 | COc1ccc(-c2nc(NC(=O)c3cnc(N4CCC(C(=O)O)CC4)cn3)sc2CN2CCC[C@H]2C(F)(F)F)cc1C(F)(F)F [Example 179] | 120
19 | >10 | COCCN(Cc1sc(NC(=O)c2cnc(N3CCC(C(=O)O)CC3)cn2)nc1-c1cc(C(F)(F)F)cc(C(F)(F)F)c1)CC(C)C [Example 38] | –
20 | 1.1 | C[C@@H]1CCCN1Cc1sc(NC(=O)c2cnc(N3CCC(F)(C(=O)O)CC3)cn2)nc1-c1ccc(F)c(C(F)(F)F)c1 [Example 133] | –
21 | >10 | CCCC1CCCN1Cc1sc(NC(=O)c2cnc(N3CCC(C(=O)O)CC3)cn2)nc1-c1ccc(OC(C)C)c(C(F)(F)F)c1 (centres unmarked) [Example 19] | 124
22 | >10 | CCOc1ccc(-c2nc(NC(=O)c3cnc(N4CCC(C(=O)O)CC4)cn3)sc2CN2CCC[C@H]2CC)cc1C(F)(F)F [Example 203] | –
23 | >10 | CC[C@@H]1CCCN1Cc1sc(NC(=O)c2cnc(N3CCC(C(=O)O)CC3)cn2)nc1-c1ccc(OCCCOC)c(C(F)(F)F)c1 [Example 21] | –
24 | >10 | COc1cc(-c2nc(NC(=O)c3cnc(N4CCC(C(=O)O)CC4)cn3)sc2CN2CCCC[C@H]2C)cc(C(F)(F)F)c1 [Example 2, 1-{5-[(4-[3-methoxy-5-(trifluoromethyl)phenyl]-5-{[(2R)-2-methylpiperidin-1-yl]methyl}-1,3-thiazol-2-yl)carbamoyl]pyrazin-2-yl}piperidine-4-carboxylic acid dihydrochloride] | –
